{"source": "patent EP0861891A1", "about": "“Compounds for modulating cell negative regulations and biological applications thereof” (INSTITUT NATIONAL DE LA SANTE ET DE LA RECHERCHE MEDICALE …, priority 1996, dated 1998)", "target": "T1, GST-SHP-1.SH2(C) (Mus musculus, UniProt P29351)", "T1 construct": "recombinant fusion proteins corresponding to the isolated N- and C-SH2 domains of SHP-1; made in house; host or cells: E. coli DH5α", "T1 sequence (P29351 110-213 limits assumed)": "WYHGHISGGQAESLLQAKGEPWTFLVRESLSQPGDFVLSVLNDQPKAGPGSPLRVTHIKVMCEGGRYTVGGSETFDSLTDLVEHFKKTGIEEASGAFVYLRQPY", "experiment": "Surface plasmon resonance, binding of phosphorylated KIR ITIM peptides to SHP-1 C-SH2 domain", "parameters": "species or system murine", "details": "calculated from koff/kon", "method": "Fusion proteins and surface plasmon resonance analysis. Surface plasmon resonance (SPR) measurements were performed on a BIAcore™ (Pharmacia). The GST-SHP-1.SH2(NC), GST-SHP-1.SH2(N), GST-SHP-1.SH2(C), GST-SHIP.SH2 fusion proteins generated from the murine phosphatase cDNA, were purified from DH5α lysates. Briefly, overnight culture at 37°C in LB medium containing 50 µg/ml ampicillin was diluted 1/10 in fresh medium, and incubated until the absorbance at 600 nm reaches 1-2. At that point, IPTG was added (1mM), and incubation continued for an additional 4 hours at 37°C. […] Protein purity was assessed by 12.5 % SDS-PAGE, and Coomassie blue staining. […] Then, biotinylated peptides were injected, and their binding to streptavidine-coated microchips was assessed using anti-phosphotyrosine 4G10 mAb (UBI).\nThe measurement of phosphorylated p58.2 peptide binding to GST-SHP-1.SH2(N) and GST-SHP-1.SH2(C) fusion proteins was at a constant 5 µl/min flow rate. […] Results are expressed as corrected resonance units (CRU) corresponding to the raw RU values subtracted from background RU value due to the injection medium. In this representative experiment, 130 RU of p58.2.1 peptide and 160 RU of p58.2.2 peptide were immobilized on microchips. koff and kon were calculated from three independent measurements using the BIAevaluation 2.0 software. Kd was calculated from koff/kon.", "note": "Where a SMILES comes first, the peptide text is derived from it."}
{"smiles": "CC[C@H](C)[C@H](NC(=O)[C@H](CC(=O)O)NC(=O)[C@@H](NC(=O)[C@@H]1CCCN1C(=O)[C@@H]1CCCN1C(=O)[C@@H](NC(=O)[C@H](CCCCN)NC(=O)[C@@H]1CCCN1C(=O)[C@H](CCCNC(=N)N)NC(=O)[C@H](CCC(N)=O)NC(=O)[C@H](CO)NC(=O)[C@@H]1CCCN1C(=O)[C@H](CCCNC(=N)N)NC(=O)CCCC[C@@H]1SC[C@@H]2NC(=O)N[C@@H]21)[C@@H](C)O)[C@@H](C)O)C(=O)N[C@H](C(=O)N[C@H](C(=O)N[C@@H](Cc1ccc(OP(=O)(O)O)cc1)C(=O)N[C@H](C(=O)N[C@@H](CCC(=O)O)C(=O)N[C@@H](CC(C)C)C(=O)N1CCC[C@H]1C(=O)N[C@@H](CC(N)=O)C(=O)N[C@@H](C)C(=O)N[C@@H](CCC(=O)O)C(=O)N1CCC[C@H]1C(=O)O)[C@@H](C)O)C(C)C)[C@@H](C)CC", "note": "[p58.2.2, RPSQRPKTPPTDIIVY333TELPNAEP] (HELM PEPTIDE1{[O=C1N[C@H]2[C@H](CS[C@H]2CCCCC(=O)[*:2])N1].R.P.S.Q.R.P.K.T.P.P.T.D.I.I.V.[O=C([C@H](Cc1ccc(OP(=O)(O)O)cc1)N[*:1])[*:2]].T.E.L.P.N.A.E.P}$$$$V2.0)", "values": [{"measurement": "Kd", "value": 545, "unit": "nM"}]}
